# Counter-ions that a name gives are not always drawn. Like-named read-outs stand apart in the source and are kept apart here.
# Experiments:
# primary lymph node cells = test: In vitro treatment of primary lymph node cells in FBS, Ki-67; format: cell-based, mouse; conditions: 8.75 mM in FBS, 37° C., 5 hours
# Procedure: (§1) For studies of the effects of pH modifier on proliferating cells, primary thymocytes or lymph node cells (4×10^6 cells/ml) were incubated in FBS comprising 10% of saline or 87.5 mM HCl, HOAc or NaOH prepared in saline in 37° C. water bath for 5 hours before analyses. The tumor cells (2×10^6 cells/ml) were incubated in FBS comprising 10% saline or 87.5 mM HCl, HOAc, or NaOH prepared in saline in 37° C. water bath for 3-5 hours.
# (§2) Cells were washed 3 times with PBS then stained with Zombie viability dyes at room temperature for 20 minutes. At the end of incubation, 10% volume of FBS was added to absorb excess Zombie dyes. After washes, the cells were stained with conjugated antibodies against surface antigens on ice. As specified in some experiments, the cells were subsequently stained with fluorochrome-conjugated Avidin. For Annexin V staining, cells were washed twice with plain PBS and once with Annexin V binging buffer (10 mM HEPES, pH7.4, 140 mM NaCl, 2.5 mM CaCl2)) after surface antigen staining, and incubated with fluorochrome-conjugated Annexin V in Annexin V binding buffer for 15 min at room temperature. The cells were washed twice in Annexin V binding buffer and resuspended in Annexin V binding buffer. 7-AAD was added to the cells before analyzed by flow cytometry. For Ki-67 and Foxp3 staining, lymphocytes (after Zombie dye and surface antigen staining) or tumor cells (without surface antigen staining) were fixed and permeabilized using Foxp3 staining buffer kit, then stained with PE-conjugated anti-mouse or human Ki-67 antibodies. (Biolegend, San Diego, Calif., USA). Stained and unstained cells were analyzed on Accuri C6 Flow Cytomer (Accuri Cytometers, Inc., Ann Arbor, Mich.), FACS Canto (BD Bioscience, San Jose, Calif., USA) and Attune™ cytometer (Invitrogen, Carlsbad, Calif.). Data analyses were carried out using FlowJo X.
# Thus, to assess the full potentials of the pH modifiers, in vitro experiments were carried out, in which primary lymph node cells were treated with saline or saline plus the pH modifiers in 100% FBS in 37° C. water bath. Such in vitro culture systems were designed to be free of interference by pH buffering agents in common tissue culture system. The final concentration of the pH modifiers in the in vitro cultures was set to be 8.75 mM.
# [1] = system: mediastinal lymph node (MLN) cells; conditions: for percentage of Ki-67hi Lym1 B cells: saline 4.29%; for percentage of Ki-67hi Lym2 B cells: saline 35.2%; for percentage of Lym2 lymphocytes in MLN: saline 2.26%; for percentage of Ki-67hi B cells in Lym1: saline 3.91%; for CD8 T cells within Lym1: saline 13.9%; for percentage of Lym1 lymphocytes in MLN: saline 73.7%
# Procedure: For the analyses of the effects of pH modifiers on lymphocyte populations and their proliferation in vivo in Example 3, the mice were sensitized, challenged with OVA and received either i.t. or i.p. treatments. The same challenge and treatment solutions as in the asthma model were used. In the first set of experiments, the mice were challenged with 60 μl of 1×OVA challenge solution without pH modifiers by i.t. injection for 2 consecutive days. One day of the second challenge, the mice received one-time i.t. treatment with saline or saline plus HCl or HOAc. The mice were sacrificed the next day by CO2 inhalation to collect lymphoid tissues. In the second set of experiments, the mice were challenged with OVA and treated with i.t. instillation of saline or saline plus HCl or HOAc or treated with i.p. injection of saline plus NaOH for a total of 3 doses as in the asthma model. On day 3 after the final challenge and treatment, mice were sacrificed by CO2 inhalation to collect lymphoid tissues.
# as §2
# The DLNs are the primary location where active immune responses to local antigen exposure take place. The DLNs of the lungs are the mediastinal lymph nodes (MLNs). Two sets of experiments using the OVA sensitization and challenge models were carried out to investigate whether pH modifiers can affect lymphocyte populations and proliferation. In the first set of experiments, MLNs were collected from the mice 3 days after the first OVA challenge and 1 day after a single treatment. In the second set of experiments, MLNs were collected 7 days after the initial challenge and 3 days after the third treatments.
# [2] = system: inflammatory infiltration in the lung tissues; test: Asthma model: H&E staining of lung tissue; conditions: i.t. HOAc or HCl; i.p. NaOH
# [3] = system: mucus secretion in the lungs; test: Asthma model: PAS staining of lung tissue; conditions: i.t. HOAc or HCl; i.p. NaOH
# [4] = system: CD4 T cells in BALF and MLN; conditions: for Treg cells, % of total CD4 T cells, BALF: saline 7.46%; for Treg cells, % of total CD4 T cells, MLN: saline 11.80%
# Procedure: (92, 93). […] For challenge, 2× concentrated solution was prepared by mixing 100 μg OVA protein and 1 μg […] peptide (Molecular Resources, Fort Collins, Colo., USA) in 30 μl saline per mouse, and kept on ice. Immediately before i.t. (intratracheal) injection the 30 μl 2×OVA solution was mixed with equal volume of 2× treatment solution (350 mM HOAc or HCl in saline) and instilled into the trachea of the mouse. The mice were challenged every other day for a total of 3 times.
# The total mixture (60 μl) was instilled into the trachea of the mouse. The mice were treated every other day for a total of 3 times.
# as §2
# Jurkat cells = system: Jurkat cells
# Procedure: Jurkat and Raji tumor cell lines were maintained in Complete RPMI-1640 Medium (RPMI-1640 plus 1× GlutaMAX, 100 U/ml Pen-Strep (Gibco Life Technologies, Grand Island, N.Y., USA), and 5% heat-inactivated fetal bovine serum (FBS) (Atlanta Biologicals, Flowery Branch, Ga., USA)) at 37° C. and 5% CO2. The tumor cells were washed 3 times with saline plus 1% FBS before in vitro treatments with saline or saline plus pH modifiers.
# as §1
# as §2, with “For Ki-67 and Foxp3 staining, lymphocytes (after Zombie dye and surface antigen staining) or tumor cells (without surface antigen staining) were fixed and permeabilized using Foxp3 staining buffer kit, then stained with PE-conjugated anti-mouse or human Ki-67 antibodies. (Biolegend, San Diego, Calif., USA).” left out, “Data analyses were carried out using FlowJo X.” left out
# [5] = system: inflammatory cells in the BALF; test: Asthma model: BALF cellularity and cell differentials; format: in vivo, Balb/c mice; conditions: i.t. HCl or HOAc, i.p. NaOH, every other day x3; day 3 after final challenge; saline 3.06×10^6
# [6] = 3 days after third treatment, saline 5.96×10^7
# [7] = FBS with 10% of 87.5 mM modifier, 37° C., 3-5 hours, saline 73.4%
# [8] = 1 day after single i.t. treatment
# [9] = 1 day after single i.t. treatment, saline 4.5×10^7
compound,measurement,setting,value
"[Na+].[OH-] [NaOH, sodium hydroxide]",percentages of Ki-67+ cells in CD4 T cells and B cells vs saline,primary lymph node cells,nearly tripled
same,percentages of Ki-67+ cells in total lymphocytes and CD8 T cells vs saline,primary lymph node cells,more than tripled
same,increase of total MLN cells vs saline,[1]; 3 days after third i.p. treatment,32%
same,average number of total MLN cells,[1]; [6],7.9×10^7
same,Ki-67 mean fluorescence intensities of Ki-67hi Lym2 and Lym2 B cells vs saline,[1]; second set,higher
same,percentage of Ki-67hi Lym1 cells,"[1]; second set, saline 2.73%",3.48%
same,percentage of Ki-67hi Lym1 B cells,[1]; second set,4.23%
same,percentage of Ki-67hi Lym2 cells,"[1]; second set, saline 34.9%",42.2%
same,percentage of Ki-67hi Lym2 B cells,[1]; second set,44.7%
same,inflammatory infiltration in the lungs (H&E),[2],"prominent in the perivascular areas, but not very noticeable in the peribronchial areas"
same,mucus secretion (PAS staining) in the lungs,[3],no reduction of mucus secretion or PAS staining
same,"CD44+ cells in Foxp3- CD4 T cells, BALF",[4]; BALF,80.6%
same,"Treg cells, % of total CD4 T cells, BALF",[4]; BALF,6.97%
same,"Treg cells, % of total CD4 T cells, MLN",[4],11.46%
same,viability (live cells) of Jurkat cells,Jurkat cells; [7],70.4%
same,total inflammatory cells in the BALF (average),[5],2.18×10^6 per mouse
"CC(=O)O [HOAc, acetic acid]","Ki-67+ cells in live total lymphocytes, CD4, CD8 T cells and B cells",primary lymph node cells,almost eliminated all Ki-67^+
same,reduction of total MLN cells vs saline,[1]; [8],84%
same,average number of total MLN cells,[1]; [9],0.75×10^7
same,reduction of total MLN cells vs saline,[1]; 3 days after third treatment,29%
same,average number of total MLN cells,[1]; [6],4.23×10^7
same,percentage of Lym2 lymphocytes in MLN,[1]; first set,0.35%
same,percentage of Ki-67hi Lym1 cells,"[1]; first set, saline 3.31%",1.65%
same,percentage of Ki-67hi B cells in Lym1,[1]; first set,1.58%
same,CD8 T cells within Lym2,"[1]; first set, saline 9.69%",2.7%
same,CD8 T cells within Lym1,[1]; first set,1.75%
same,CD4 T cells within Lym2,"[1]; first set, saline 14.2%",3.23%
same,CD4 T cells within Lym1,"[1]; first set, saline 39.6%",8.17%
same,B cells within Lym1,"[1]; first set, saline 42.5%",22.2%
same,percentage of Ki-67hi Lym2 cells,"[1]; first set, saline 54.5%",27.2%
same,B cells within Lym2,"[1]; first set, saline 62.6%",46.9%
same,percentage of Ki-67hi B cells in Lym2,"[1]; first set, saline 62.6%",37.9%
same,percentage of Lym1 lymphocytes in MLN,[1]; first set,32.4%
same,percentage of Ki-67lo cells in Lym1,"[1]; first set, saline 80.4%",32.9%
same,Ki-67 mean fluorescence intensities of Ki-67hi Lym2 and Lym2 B cells vs saline,[1]; second set,much lower
same,increase of B cells within Lym1 vs saline,[1]; second set,60.4%
same,reduction of CD4 T cells within Lym1 vs saline,[1]; second set,19.3%
same,reduction of CD4 T cells within Lym2 vs saline,[1]; second set,88%
same,reduction of CD8 T cells within Lym1 vs saline,[1]; second set,46.8%
same,reduction of CD8 T cells within Lym2 vs saline,[1]; second set,91.7%
same,percentage of Ki-67hi Lym1 cells,"[1]; second set, saline 2.73%",2.67%
same,CD8 T cells within Lym2,"[1]; second set, saline 4.21%",0.35%
same,percentage of Ki-67hi Lym1 B cells,[1]; second set,2.38%
same,CD4 T cells within Lym2,"[1]; second set, saline 6.91%",0.8%
same,percentage of Lym2 in MLN,"[1]; second set, saline 8.10%",38.7%
same,CD8 T cells within Lym1,[1]; second set,7.39%
same,B cells within Lym1,"[1]; second set, saline 27.3%",43.8%
same,percentage of Ki-67hi Lym2 cells,"[1]; second set, saline 34.9%",25.3%
same,percentage of Ki-67hi Lym2 B cells,[1]; second set,24.9%
same,CD4 T cells within Lym1,"[1]; second set, saline 54.9%",44.3%
same,B cells within Lym2,"[1]; second set, saline 84%",93%
same,inflammatory infiltration in the lungs (H&E),[2],diminished
same,mucus secretion (PAS staining) in the lungs,[3],only faint PAS staining
same,"Treg cells, % of total CD4 T cells, BALF",[4]; BALF,7.18%
same,"Treg cells, % of total CD4 T cells, MLN",[4],11.53%
same,viability (live cells) of Jurkat cells,"Jurkat cells; human, 8.75 mM",34.3%
same,total inflammatory cells in the BALF (average),[5],9.01×10^5 per mouse
"Cl [HCl, hydrochloric acid]","Ki-67+ cells in live total lymphocytes, CD4, CD8 T cells and B cells",primary lymph node cells,almost eliminated all Ki-67^+
same,reduction of total MLN cells vs saline,[1]; [8],12%
same,average number of total MLN cells,[1]; [9],4.0×10^7
same,reduction of total MLN cells vs saline,[1]; 3 days after third treatment,5.5%
same,average number of total MLN cells,[1]; [6],5.6×10^7
same,percentage of Lym2 lymphocytes in MLN,[1]; first set,2.83%
same,percentage of Ki-67hi Lym1 cells,"[1]; first set, saline 3.31%",2.92%
same,percentage of Ki-67hi B cells in Lym1,[1]; first set,2.79%
same,CD8 T cells within Lym2,"[1]; first set, saline 9.69%",8.2%
same,CD4 T cells within Lym2,"[1]; first set, saline 14.2%",13.4%
same,B cells within Lym1,"[1]; first set, saline 42.5%",34.4%
same,percentage of Ki-67hi Lym2 cells,"[1]; first set, saline 54.5%",49.1%
same,B cells within Lym2,"[1]; first set, saline 62.6%",44.8%
same,percentage of Ki-67hi B cells in Lym2,"[1]; first set, saline 62.6%",51.1%
same,percentage of Lym1 lymphocytes in MLN,[1]; first set,68.3%
same,Ki-67 mean fluorescence intensities of Ki-67hi Lym2 and Lym2 B cells vs saline,[1]; second set,much lower
same,percentage of Ki-67hi Lym1 cells,"[1]; second set, saline 2.73%",2.42%
same,percentage of Ki-67hi Lym1 B cells,[1]; second set,3.62%
same,percentage of Ki-67hi Lym2 cells,"[1]; second set, saline 34.9%",34.9%
same,percentage of Ki-67hi Lym2 B cells,[1]; second set,35.5%
same,inflammatory infiltration in the lungs (H&E),[2],diminished
same,mucus secretion (PAS staining) in the lungs,[3],only faint PAS staining
same,"Treg cells, % of total CD4 T cells, BALF",[4]; BALF,4.45%
same,"Treg cells, % of total CD4 T cells, MLN",[4],9.12%
same,viability (live cells) of Jurkat cells,Jurkat cells; [7],22.1%
same,total inflammatory cells in the BALF (average),[5],1.07×10^6 per mouse

# Reference: patent US20230135127A1, “COMPOSITIONS AND METHODS FOR DISEASE TREATMENT AND PREVENTION BY PH MODIFIERS AND/OR CELL PROLIFERATION INHIBITORS” (priority 2021, published 2023)
